Measured values as given in a melting point compilation (Tetko et al.; mined from patent text by program, amines drawn as free bases though some values may be those of a salt).

| melting point [°C] | Structure (SMILES) |
| --- | --- |
| 248 to 250 | CC1(C)Oc2ccc(OC(F)(F)F)cc2[C@@H](N2Cc3cccnc3C2=O)[C@@H]1O (relative stereo) |
| 155 | O=c1[nH]cc(-c2cc(-c3cnc4ccccc4c3)ccn2)n1-c1ccc(N2CCNCC2)c(C(F)(F)F)c1 |
| 125 to 128 | CC(C)C1=C(Sc2ccccc2)C(c2ccc(F)cc2)=C(C(C)O)C(C(C)C)N1C (stereo unspecified) |
| 211 to 213 | Cc1cc(C)c2[nH]c(=O)c(O)cc(=O)c2c1 |
| 282 to 284 | O=C1CCC(N2Cc3c(CNC(=O)c4ccncc4)cccc3C2=O)C(=O)N1 (stereo unspecified) |
| 86 to 88 | CS(=O)(=O)NCCC1(C[N+](=O)[O-])CCCCC1 |
| 205 to 206 | Cc1c(Br)c2c(c(C)c1NC(=O)CC(C)(C)C)CC(C)(C)O2 |
| 155 to 156 | CN1C(=O)C2CC(c3ccc(Cl)cc3)(C2)C1=O |
| 230 to 233 | Cc1ccc2c(c1)c1c(n2C(=O)c2ccc(F)cc2)CCC(C(=O)O)C1 (stereo unspecified) |
| 200 | O=C(CCC(F)(F)F)N[C@H]1CC[C@H](CCN2CCC(c3cccc4c3CCO4)CC2)CC1 |
| 280 | N#Cc1cc(C(=O)NNC(=O)c2occc2-c2ccncc2)ccc1O |
| 97 to 99 | CCOC(=O)C(C)=Cc1cn(-c2cccnc2)c2ccccc12 |
| 98 to 99 | CC(=O)Oc1c(C)c(C)c2c(c1C)CC(C)(CO)O2 (stereo unspecified) |
| 108 to 109 | CC(C)[C@H]1OC[C@H](Nc2nnc(Cc3ccc(O)nc3)c3ccccc23)CO1 |
| 152 to 155 | C#Cc1cc(Nc2ncnc3cnc(NC(=O)/C=C/CN(C)C)cc23)ccc1F |
| 97 | CC(C)[C@H](O)[C@@H](CCCCOc1cc(F)ccc1F)n1nc[nH]c1=S (racemic) |
| 282 to 283 | CS(=O)(=O)N1Cc2nc3c(N)nc4ccccc4c3n2CC(O)C1 (stereo unspecified) |
| 62 to 65 | CCOC(=O)C(C#N)(Cc1ccc(OC)c(OC)c1)C(OCC)OCC (stereo unspecified) |
| 81 to 82 | CCCCCCCCCCCCCCCCCCOC(=O)P(=O)(O)O |
| 155 to 157 | O=C(O)C(NC(=O)C(F)(F)F)c1ccccc1 (stereo unspecified) |
| 259 to 261 | CCCn1c(=O)c2[nH]c(/C=C/c3ccccc3)nc2n(CCC)c1=O |
| 135 to 137 | CCCCCCOC1CC(C)(C)N(c2nc(N(CCCC)C3CC(C)(C)NC(C)(C)C3)nc(N(CCCC)C3CC(C)(C)NC(C)(C)C3)n2)C(C)(C)C1 |
| 267 to 275 | CC1CC1n1cc(C(=O)O)c(=O)c2cc(F)c(N3CCC(N)C3)c(F)c21 (stereo unspecified) |

| melting point [°C] | Structure (SMILES) |
| --- | --- |
| 114 | CC(=O)c1cc2c(C(C)=O)c(OCC3CO3)ccc2o1 (stereo unspecified) |
| 134 to 135 | Cc1ncc2cc(Cl)nc(Cl)n12 |
| 98 to 100 | CCCCCCCN(CCCCCSc1nc2c([nH]1)CCCC2)C(=O)Nc1ccc(F)cc1F |
| 57 to 58 | CCCc1c(OCCOCCOCCOCCOc2ccc3ccc(OCC(=O)O)cc3c2C(C)=O)ccc(C(C)=O)c1O |
| 105 to 106 | Cc1ccccc1-n1ccc2nnc3c(C)cccc3c21 |
| 129 to 130 | OC(c1ccccc1)C1CCN(CCCN(c2ccccc2)c2ccccc2)CC1 (stereo unspecified) |
| 268 | CSc1nc(=O)[nH]c(C)c1Cl |
| 88 to 90 | CC(C)(C)OC(=O)C(ON1CCNC1=Nc1c(Cl)cccc1Cl)c1ccccc1 (stereo unspecified) |
| 64 to 67 | O=C(O)COCC(=O)CCCCCCCCCC(=O)NONC(=O)O |
| 116 | CCCCc1[nH]c2ccc([N+](=O)[O-])cc2c1C(=O)c1ccc(OCCCN(CCCC)CCCC)cc1 |
| 107 to 108 | CC(C)(O)c1cccc(S(N)(=O)=O)c1 |
| 201 to 203 | Cc1[nH]cnc1CSCCN=C(N)NCCNC(N)=NCCSCc1nc[nH]c1C |
| 244 to 246 | CC(C)c1ccc2c(c1)C=C(/C=C/C=C/C=C/C(=O)O)CO2 |
| 80 to 81 | CC(=O)NCc1ccc(CN2CCN(c3cccc(C)c3)CC2)cc1 |
| 154 to 156 | COc1cc(Cc2sc3ccccc3c2S(=O)(=O)Nc2onc(C)c2Br)cc(OC)c1OC |
| 128 to 130 | CNC(=O)c1c(C(F)(F)F)nc(C(F)F)c(C(=O)OC)c1NC(C)C |
| 128 | Cc1cc(Cl)ccc1CCN(C(=O)C(C)Cl)c1ccccc1 (stereo unspecified) |
| 204 to 205 | N#CCn1nnc(NC(=O)C2c3ccccc3Oc3ccccc32)n1 |
| 230 to 232 | C=CCC(CC=C)(CC=C)c1ccc(-c2nc3cc4c(cc3n2CCC)C(=N)NC4=N)cc1 |
| 90 to 91 | CCOC(=O)/C=C/c1ccc(OCCC2(C)OCCO2)cc1Oc1ncc(C(F)(F)F)cc1Cl |
| 292 to 293 | Nc1cccc(Sc2cccc3c2C(=O)c2cccc(Sc4cccc(N)c4)c2C3=O)c1 |
| 110 to 112 | Cc1nc(NCc2ccccn2)c2c(-c3ccccc3)csc2n1 |
| 145 to 146 | c1ccc(COc2ccc(Nc3ccn(-c4ccccc4)n3)cc2)cc1 |

| melting point [°C] | Structure (SMILES) |
| --- | --- |
| 147 | COc1cc(C(=O)N2CCN(C(=O)c3cc(OC)c(OC)c(OC)c3)C(COC(=O)N3CCCCC3)C2)cc(OC)c1OC (stereo unspecified) |
| 129 to 131 | O=c1nc(O)ccc2ccccc12 |
| 114 to 117 | CC(CCc1cccc(F)c1)NCc1c(CO)ccc(O)c1CO (stereo unspecified) |
| 234 to 239 | Cn1c(=O)c(-c2ccc(Cl)cc2Cl)cc2c3cc(-c4nc(CC(=O)O)cs4)ccc3n(C)c21 |
| 84 to 87 | CCSc1cc(C)nc(SCC)c1NC(=O)CCCCCCCCSc1nc2ccccc2o1 |
| < 50 | CCCCCSCCSCCSCCCCC |
| 311 | NS(=O)(=O)c1cnc(NC(=O)c2cnn3c(C(F)F)cc(-c4ccc(C(F)(F)F)cc4)nc23)s1 |
| 178 to 181 | O=C(c1c(-c2ccccc2)oc2ccccc2c1=O)N1CCN(c2ccccn2)CC1 |
| 230 | O=c1[nH][nH]c(=S)n(CCO)c1=O |
| 148 | COc1cc(Cn2[nH]c(N)cc2=O)ccc1Cl |
| 288 to 289 | CCn1c(=O)c2[nH]c(/C=C/c3cccc(OC)c3OC)nc2n(CC)c1=O |
| 125 to 126 | CNC(=S)Nc1ccccc1N1CCCC1 |
| > 275 | COC1CC(N)(C(=O)O)C2C(C(=O)O)C12 (stereo unspecified) |
| 178 to 179 | O=C(Cn1c(-c2ccc(Br)cc2)nc2cccnc21)NCCN1CCCCC1 |
| 218 to 220 | CC(=O)Nc1ccnc(-c2ccncc2)n1 |
| 94 to 96 | Clc1ccc(N2CCN(CCC3OCCc4cc(Br)ccc43)CC2)cc1 (stereo unspecified) |
| 74 to 76 | O=C(OCc1ccccc1)c1cc(Br)c(OCc2ccccc2)cc1OCc1ccccc1 |
| 61 to 61.7 | FC(F)(F)c1cc(C2CCCO2)c2cccc(C(F)(F)F)c2n1 (stereo unspecified) |
| 234 to 236 | O=C(c1ccccc1)N1Cc2c(-c3noc(C4CC4)n3)ncn2-c2cccc(F)c21 |
| 165 to 168 | COc1ccc(Nc2nc(Cl)nc(Cl)n2)cc1 |
| 257 to 259 | CCn1cc(C(=O)O)c(=O)c2cc(F)c(-n3cccc3)nc21 |
| 115 to 118 | O=[N+]([O-])c1cc(Cc2ccc[nH]2)cc(O)c1O |

| Structure (SMILES) | melting point [°C] |
| --- | --- |
| CC1(C)CCC(C)(C)c2cc(CC#Cc3ccc(C(=O)O)c(O)c3)c(O)cc21 | 216 to 217 |
| CC[C@H]1[C@H](O)C2(CC2)C(=O)N1c1ccc(C#N)c(C(F)(F)F)c1 | 106 to 110 |
| CN(C)C=C1N=C(c2ccccc2Cl)c2cc(Cl)ccc2N(C)C1=O | 199 to 200 |
